Assay results as given in patent US12172983B2, “EGFR inhibitors” (Blueprint Medicines Corporation, priority 2019, dated 2024).
pIC50: −log10 of the molar value. Where two headings read alike, the source gives them in different places.

Experiments:
EGFR (L858R T790M C797S) = molecular target: T1, EGFR (L858R T790M C797S) (Homo sapiens, UniProt P00533, C797S/L858R/T790M); assay: Biochemical EGFR inhibition assay (Caliper mobility shift), EGFR LRTMCS mutant; details: inhibitory activity against EGFR LRTMCS mutant; apparent IC50; read-out: Ext Enz LRTMCS
T1 construct: purchased SignalChem E10-122VG
T1 sequence (P00533 25-1210 T790M/C797S/L858R): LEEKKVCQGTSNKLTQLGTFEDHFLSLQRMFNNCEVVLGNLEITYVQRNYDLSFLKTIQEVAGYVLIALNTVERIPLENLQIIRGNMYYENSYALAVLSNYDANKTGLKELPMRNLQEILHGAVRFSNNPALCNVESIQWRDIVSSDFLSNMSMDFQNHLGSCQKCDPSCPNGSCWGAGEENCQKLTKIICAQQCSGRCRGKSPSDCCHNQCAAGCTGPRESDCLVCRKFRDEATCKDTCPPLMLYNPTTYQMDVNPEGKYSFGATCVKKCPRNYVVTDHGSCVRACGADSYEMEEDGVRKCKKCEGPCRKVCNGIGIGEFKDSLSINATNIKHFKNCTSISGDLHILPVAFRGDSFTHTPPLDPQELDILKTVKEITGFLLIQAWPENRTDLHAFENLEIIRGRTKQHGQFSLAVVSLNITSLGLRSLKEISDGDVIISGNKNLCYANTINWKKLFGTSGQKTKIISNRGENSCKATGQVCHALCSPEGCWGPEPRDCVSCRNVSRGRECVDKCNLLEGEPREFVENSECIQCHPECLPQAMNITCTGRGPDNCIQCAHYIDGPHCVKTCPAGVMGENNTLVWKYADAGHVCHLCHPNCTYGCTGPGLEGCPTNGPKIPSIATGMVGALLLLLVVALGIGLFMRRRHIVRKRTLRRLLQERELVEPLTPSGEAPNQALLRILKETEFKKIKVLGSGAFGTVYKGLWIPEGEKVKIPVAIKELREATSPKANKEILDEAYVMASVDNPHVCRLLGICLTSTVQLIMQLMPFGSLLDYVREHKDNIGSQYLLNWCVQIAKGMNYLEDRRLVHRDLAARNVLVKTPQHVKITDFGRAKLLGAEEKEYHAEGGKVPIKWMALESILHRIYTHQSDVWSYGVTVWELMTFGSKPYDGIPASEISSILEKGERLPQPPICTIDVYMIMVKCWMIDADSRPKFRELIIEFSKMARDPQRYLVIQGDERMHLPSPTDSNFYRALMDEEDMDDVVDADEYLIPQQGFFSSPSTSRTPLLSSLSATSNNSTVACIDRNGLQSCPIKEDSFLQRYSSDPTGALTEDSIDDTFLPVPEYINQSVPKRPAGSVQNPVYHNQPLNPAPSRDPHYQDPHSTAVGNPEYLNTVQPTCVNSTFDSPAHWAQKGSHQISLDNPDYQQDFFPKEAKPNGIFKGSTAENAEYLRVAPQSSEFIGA
Procedure, shortened: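 Apparent IC50s were derived by plotting percent activity against the log of compound concentration. Activity was measured as phosphopeptide electrophoretically separated from substrate, after reactions at room temperature reached 10% to 20% phosphorylation and were halted with 35 mM EDTA.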

[1] = system: phosphorylation of EGFR (Tyr1068) in NCI-H1975 cell line that harbors the EGFR L858R T790M mutations; assay: NCI-H1975 pEGFR AlphaLISA assay; type: cell-based; details: 4-5 hours incubation, read-out: Ext pEGFR H1975
Procedure, shortened: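 Phospho-EGFR Tyr1068 AlphaLISA readout: lysates taken from compound-treated H1975 cells (L858R T790M EGFR) after a 4-5 h exposure at 37 °C. Cells had adhered overnight beforehand. IC50 derived by plotting % pEGFR inhibition against log compound concentration.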

[2] = inhibition of phosphorylation of mutant EGFR in NCI-H1975 cells
[3] = Homo sapiens, NCI-H1975, inhibition of phosphorylation of mutant EGFR in NCI-H1975 cells

pIC50 (EGFR (L858R T790M C797S))	pIC50 [1, 2]	pIC50 [1, 3]	SMILES
7.70 to 7.82	7.70 to 8.00		CC(C)c1ccc(N2CC(CS(C)(=O)=O)C2)c2cnc(Nc3ccnc(N4CC[C@H](O)[C@H](C)C4)n3)cc12 (single isomer, unassigned) [Compound 19, (3S,4R)-1-[4-({8-[3-(methanesulfonylmethyl)azetidin-1-yl]-5-(propan-2-yl)isoquinolin-3-yl}amino)pyrimidin-2-yl]-3-methylpiperidin-4-ol or (3R,4S)-1-[4-({8-1,3-(methanesulfonylmethyl)azetidin-1-yl]-5-(propan-2-yl)isoquinolin-3-yl}amino)pyrimidin-2-yl]-3-methylpiperidin-4-ol]
≥ 7.82		≥ 8.00	CC(C)c1ccc(N2C[C@H](CS(C)(=O)=O)[C@H]2C)c2cnc(Nc3ccnc(N4C[C@@H](F)[C@@H](O)[C@](C)(F)C4)n3)cc12 (single isomer, unassigned) [Compound 212, (3R,4R,5R)-3,5-difluoro-1-[4-({8-[(2R,3S)-3-(methanesulfonylmethyl)-2-methylazetidin-1-yl]-5-(propan-2-yl)isoquinolin-3-yl}amino)pyrimidin-2-yl]-3-methylpiperidin-4-ol or (3S,4S,5S)-3,5-difluoro-1-[4-({8-[(2R,3S)-3-(methanesulfonylmethyl)-2-methylazetidin-1-yl]-5-(propan-2-yl)isoquinolin-3-yl}amino)pyrimidin-2-yl]-3-methylpiperidin-4-ol]
≥ 7.82	7.70 to 8.00		CC(C)c1ccc(N2CC(CS(C)(=O)=O)C2)c2cnc(Nc3ccnc(N4CC[C@](C)(O)C[C@@H]4C)n3)cc12 (single isomer, unassigned) [Compound 45, (2S,4S)-1-[4-({8-[3-(methanesulfonylmethyl)azetidin-1-yl]-5-(propan-2-yl)isoquinolin-3-yl}amino)pyrimidin-2-yl]-2,4-dimethylpiperidin-4-ol or (2R,4R)-1-[4-({8-[3-(methanesulfonylmethyl)azetidin-1-yl]-5-(propan-2-yl)isoquinolin-3-yl}amino)pyrimidin-2-yl]-2,4-dimethylpiperidin-4-ol]
≥ 7.82		7.70 to 8.00	CO[C@H]1CN(c2nccc(Nc3cc4c(C(C)C)cnc(N5C[C@H](CS(C)(=O)=O)[C@H]5C)c4cn3)n2)C[C@@H](F)[C@H]1O (single isomer, unassigned) [Compound 308, (3R,4S,5S)-3-fluoro-1-[4-({8-[(2R,3S)-3-(methanesulfonylmethyl)-2-methylazetidin-1-yl]-5-(propan-2-yl)-2,7-naphthyridin-3-yl}amino)pyrimidin-2-yl]-5-methoxypiperidin-4-ol or (3S,4R,5R)-3-fluoro-1-[4-({8-[(2R,3S)-3-(methanesulfonylmethyl)-2-methylazetidin-1-yl]-5-(propan-2-yl)-2,7-naphthyridin-3-yl}amino)pyrimidin-2-yl]-5-methoxypiperidin-4-ol]
≥ 7.82		7.70 to 8.00	COCCO[C@H]1CCN(c2nccc(Nc3cc4c(F)ccc(N5C[C@H](CS(C)(=O)=O)[C@H]5C)c4cn3)n2)C[C@H]1F (single isomer, unassigned) [Compound 216]
≥ 7.82		≥ 8.00	C[C@@H]1[C@@H](CS(C)(=O)=O)CN1c1ccc(F)c2cc(Nc3ccnc(N4C[C@H](F)[C@H](O)C(C)(C)C4)n3)ncc12 (single isomer, unassigned) [Compound 83, (4S,5R)-5-fluoro-1-[4-({5-fluoro-8-[(2R,3S)-3-(methanesulfonylmethyl)-2-methylazetidin-1-yl]isoquinolin-3-yl}amino)pyrimidin-2-yl]-3,3-dimethylpiperidin-4-ol or (4R,5S)-5-fluoro-1-[4-({5-fluoro-8-[(2R,3S)-3-(methanesulfonylmethyl)-2-methylazetidin-1-yl]isoquinolin-3-yl}amino)pyrimidin-2-yl]-3,3-dimethylpiperidin-4-ol]
≥ 7.82		≥ 8.00	CC(C)c1ncc(N2CC(CS(C)(=O)=O)C2)c2cnc(Nc3ccnc(N4CC[C@@H](O)[C@@](C)(F)C4)n3)cc12 (single isomer, unassigned) [Compound 70]
≥ 7.82		≥ 8.00	CC(C)c1ccc(N2CC(CS(C)(=O)=O)C2)c2cnc(Nc3ccnc(N4C[C@@H](F)[C@@H](O)[C@@](C)(F)C4)n3)cc12 (single isomer, unassigned) [Compound 155, (3S,4R,5R)-3,5-difluoro-1-[4-({8-[3-(methanesulfonylmethyl)azetidin-1-yl]-5-(propan-2-yl)isoquinolin-3-yl}amino)pyrimidin-2-yl]-3-methylpiperidin-4-ol or (3R,4S,5S)-3,5-difluoro-1-[4-({8-[3-(methanesulfonylmethyl)azetidin-1-yl]-5-(propan-2-yl)isoquinolin-3-yl}amino)pyrimidin-2-yl]-3-methylpiperidin-4-ol]
≥ 7.82		≥ 8.00	CC(C)c1ccc(N2C[C@H](CS(C)(=O)=O)[C@H]2C)c2cnc(Nc3ccnc(N4CCC(OCCO)CC4)n3)cc12 [Compound 171, 2-({1-[4-({8-[(2R,3S)-3-(methanesulfonylmethyl)-2-methylazetidin-1-yl]-5-(propan-2-yl)isoquinolin-3-yl}amino)pyrimidin-2-yl]piperidin-4-yl}oxy)ethan-1-ol]
7.52 to 7.70		≥ 8.00	CC(C)c1ccc(N2C[C@H](CS(C)(=O)=O)[C@H]2C)c2cnc(Nc3ccnc(N4CC[C@H](OCC(C)(C)O)[C@H](F)C4)n3)cc12 [Compound 255, 1-{[(3R,4S)-3-fluoro-1-[4-({8-[(2R,3S)-3-(methanesulfonylmethyl)-2-methylazetidin-1-yl]-5-(propan-2-yl)isoquinolin-3-yl}amino)pyrimidin-2-yl]piperidin-4-yl]oxy}-2-methylpropan-2-ol]
7.70 to 7.82		≥ 8.00	CC(C)c1ccc(N2C[C@@H](CS(C)(=O)=O)[C@H]2C)c2cnc(Nc3ccnc(N4CC[C@](C)(O)[C@H](F)C4)n3)cc12 (single isomer, unassigned) [Compound 121]
≥ 7.82		≥ 8.00	CC(C)c1ccc(N2C[C@H](CS(C)(=O)=O)[C@H]2C)c2cnc(Nc3ccnc(N4CC[C@H]5COC[C@H]54)n3)cc12 (single isomer, unassigned) [Compound 40]
≥ 7.82		≥ 8.00	CO[C@H]1CCN(c2nccc(Nc3cc4c(C(C)C)ncc(N5CC(CS(C)(=O)=O)C5)c4cn3)n2)C[C@H]1F [Compound 73, N-{2-[(3R,4S)-3-fluoro-4-methoxypiperidin-1-yl]pyrimidin-4-yl}-8-[3-(methanesulfonylmethyl)azetidin-1-yl]-5-(propan-2-yl)-2,6-naphthyridin-3-amine]
7.70 to 7.82		≥ 8.00	CN[C@H]1CCN(c2nccc(Nc3cc4c(C(C)C)ccc(N5C[C@H](CS(C)(=O)=O)[C@H]5C)c4cn3)n2)CC1(F)F (single isomer, unassigned) [Compound 309, N-{2-[(4S)-3,3-difluoro-4-(methylamino)piperidin-1-yl]pyrimidin-4-yl}-8-[(2R,3S)-3-(methanesulfonylmethyl)-2-methylazetidin-1-yl]-5-(propan-2-yl)isoquinolin-3-amine or N-{2-[(4R)-3,3-difluoro-4-(methylamino)piperidin-1-yl]pyrimidin-4-yl}-8-[(2R,3S)-3-(methanesulfonylmethyl)-2-methylazetidin-1-yl]-5-(propan-2-yl)isoquinolin-3-amine]
≥ 7.82		≥ 8.00	CC(C)c1ccc(N2C[C@H](CS(C)(=O)=O)[C@H]2C)c2cnc(Nc3ccnc(N4CC[C@H](O)C[C@H]4C)n3)cc12 (single isomer, unassigned) [Compound 49, (2R,4S)-1-[4-({8-[(2R,3S)-3-(methanesulfonylmethyl)-2-methylazetidin-1-yl]-5-(propan-2-yl)isoquinolin-3-yl}amino)pyrimidin-2-yl]-2-methylpiperidin-4-ol or (2S,4R)-1-[4-({8-[(2R,3S)-3-(methanesulfonylmethyl)-2-methylazetidin-1-yl]-5-(propan-2-yl)isoquinolin-3-yl}amino)pyrimidin-2-yl]-2-methylpiperidin-4-ol]
≥ 7.82		7.30 to 7.52	CC(C)c1ccc(N2CC(CS(C)(=O)=O)C2)c2cnc(Nc3ccnc(N4C[C@H]5C[C@@H]4C[C@H]5O)n3)cc12 (single isomer, unassigned) [Compound 11, (1R,4R,5R)-2-[4-({8-[3-(methanesulfonylmethyl)azetidin-1-yl]-5-(propan-2-yl)isoquinolin-3-yl}amino)pyrimidin-2-yl]-2-azabicyclo[2.2.1]heptan-5-ol or (1S,4S,5S)-2-[4-({8-[3-(methanesulfonylmethyl)azetidin-1-yl]-5-(propan-2-yl)isoquinolin-3-yl}amino)pyrimidin-2-yl]-2-azabicyclo[2.2.1]heptan-5-ol]
≥ 7.82		7.30 to 7.52	CO[C@H]1CCN(c2nccc(Nc3cc4cccc(N5C[C@H](CS(C)(=O)=O)[C@H]5C)c4cn3)n2)C[C@H]1F [Compound 4, N-{2-[(3R,4S)-3-fluoro-4-methoxypiperidin-1-yl]pyrimidin-4-yl}-8-[(2R,3S)-3-(methanesulfonylmethyl)-2-methylazetidin-1-yl]isoquinolin-3-amine]
